Reference: the supplement of paper PMC10307832

Tests used:
Experiment in all cases: relative viability (nuclei count vs DMSO), 5 days (fraction); higher = more cells survive
Sorafenib + Luminespib = compound: CNC(=O)c1cc(Oc2ccc(NC(=O)Nc3ccc(Cl)c(C(F)(F)F)c3)cc2)ccn1 [Sorafenib] + CCNC(=O)c1noc(-c2cc(C(C)C)c(O)cc2O)c1-c1ccc(CN2CCOCC2)cc1 [Luminespib] (partner 0.01 µM)
How it was run: (§1)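 Lung cancer cell lines, seeded in 1536-well plates, were treated the following day by pin tool with a single drug or with five library-drug doses (not always all listed) in √10 steps on top of a fixed anchor-drug dose. Cells were fixed and nuclei stained in one step after 5 days, and nuclei were counted. Relative viability is the nuclei count for treated wells divided by that for vehicle wells, reported as medians of duplicate plates.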

Sorafenib + OSI-027 = compound: CNC(=O)c1cc(Oc2ccc(NC(=O)Nc3ccc(Cl)c(C(F)(F)F)c3)cc2)ccn1 [Sorafenib] + COc1cccc2cc(-c3nc([C@H]4CC[C@H](C(=O)O)CC4)n4ncnc(N)c34)[nH]c12 [OSI-027] (partner 0.5 µM)
How it was run: as §1

Sorafenib + Pictilisib = compound: CNC(=O)c1cc(Oc2ccc(NC(=O)Nc3ccc(Cl)c(C(F)(F)F)c3)cc2)ccn1 [Sorafenib] + CS(=O)(=O)N1CCN(Cc2cc3nc(-c4cccc5[nH]ncc45)nc(N4CCOCC4)c3s2)CC1 [Pictilisib] (partner 1 µM)
How it was run: as §1

Sorafenib + Phenformin = compound: CNC(=O)c1cc(Oc2ccc(NC(=O)Nc3ccc(Cl)c(C(F)(F)F)c3)cc2)ccn1 [Sorafenib] + N=C(N)NC(=N)NCCc1ccccc1 [Phenformin] (partner 250 µM)
How it was run: as §1

Sorafenib + Olaparib = compound: CNC(=O)c1cc(Oc2ccc(NC(=O)Nc3ccc(Cl)c(C(F)(F)F)c3)cc2)ccn1 [Sorafenib] + O=C(c1cc(Cc2n[nH]c(=O)c3ccccc23)ccc1F)N1CCN(C(=O)C2CC2)CC1 [Olaparib] (partner 8 µM)
How it was run: as §1

EKVX was tested, and the relative viability (Sorafenib + Luminespib; first compound 0.08 µM) was 0.963, the relative viability (Sorafenib + Luminespib; first compound 0.253 µM) was 0.864 and the relative viability (Sorafenib + Luminespib; first compound 2.53 µM) was 0.808. It also gave a relative viability (Sorafenib + Luminespib; first compound 8 µM) of 0.854, a relative viability (Sorafenib + OSI-027; first compound 0.08 µM) of 0.712 and a relative viability (Sorafenib + OSI-027; first compound 0.253 µM) of 0.74. The relative viability (Sorafenib + OSI-027; first compound 2.53 µM) was 0.701, the relative viability (Sorafenib + OSI-027; first compound 8 µM) was 0.649 and the relative viability (Sorafenib + Pictilisib; first compound 0.08 µM) was 0.529. The relative viability (Sorafenib + Pictilisib; first compound 0.253 µM) was 0.463, the relative viability (Sorafenib + Pictilisib; first compound 2.53 µM) was 0.434 and the relative viability (Sorafenib + Pictilisib; first compound 8 µM) was 0.393. For the same cell line, the relative viability (Sorafenib + Phenformin; first compound 0.08 µM) was 0.243, the relative viability (Sorafenib + Phenformin; first compound 0.253 µM) was 0.24 and the relative viability (Sorafenib + Phenformin; first compound 2.53 µM) was 0.24. For the same cell line, the relative viability (Sorafenib + Phenformin; first compound 8 µM) was 0.201, the relative viability (Sorafenib + Olaparib; first compound 0.08 µM) was 0.91 and the relative viability (Sorafenib + Olaparib; first compound 0.253 µM) was 0.76. For the same cell line, the relative viability (Sorafenib + Olaparib; first compound 2.53 µM) was 0.796 and the relative viability (Sorafenib + Olaparib; first compound 8 µM) was 0.682.

With EMC-BAC-2 the relative viability (Sorafenib + Luminespib; first compound 0.08 µM) was 1.21, the relative viability (Sorafenib + Luminespib; first compound 0.253 µM) was 1.08 and the relative viability (Sorafenib + Luminespib; first compound 2.53 µM) was 1.17. It also gave a relative viability (Sorafenib + Luminespib; first compound 8 µM) of 0.812, a relative viability (Sorafenib + OSI-027; first compound 0.08 µM) of 0.341 and a relative viability (Sorafenib + OSI-027; first compound 0.253 µM) of 0.358. It also gave a relative viability (Sorafenib + OSI-027; first compound 2.53 µM) of 0.391, a relative viability (Sorafenib + OSI-027; first compound 8 µM) of 0.358 and a relative viability (Sorafenib + Pictilisib; first compound 0.08 µM) of 0.54. For the same cell line, the relative viability (Sorafenib + Pictilisib; first compound 0.253 µM) was 0.6, the relative viability (Sorafenib + Pictilisib; first compound 2.53 µM) was 0.549 and the relative viability (Sorafenib + Pictilisib; first compound 8 µM) was 0.472. It also gave a relative viability (Sorafenib + Phenformin; first compound 0.08 µM) of 0.504, a relative viability (Sorafenib + Phenformin; first compound 0.253 µM) of 0.464 and a relative viability (Sorafenib + Phenformin; first compound 2.53 µM) of 0.507. The relative viability (Sorafenib + Phenformin; first compound 8 µM) was 0.316, the relative viability (Sorafenib + Olaparib; first compound 0.08 µM) was 0.473 and the relative viability (Sorafenib + Olaparib; first compound 0.253 µM) was 0.387. For the same cell line, the relative viability (Sorafenib + Olaparib; first compound 2.53 µM) was 0.45 and the relative viability (Sorafenib + Olaparib; first compound 8 µM) was 0.461.

EPLC-272H gave a relative viability (Sorafenib + Luminespib; first compound 0.08 µM) of 0.26, a relative viability (Sorafenib + Luminespib; first compound 0.253 µM) of 0.303 and a relative viability (Sorafenib + Luminespib; first compound 2.53 µM) of 0.263. For the same cell line, the relative viability (Sorafenib + Luminespib; first compound 8 µM) was 0.335, the relative viability (Sorafenib + OSI-027; first compound 0.08 µM) was 0.314 and the relative viability (Sorafenib + OSI-027; first compound 0.253 µM) was 0.296. For the same cell line, the relative viability (Sorafenib + OSI-027; first compound 2.53 µM) was 0.273, the relative viability (Sorafenib + OSI-027; first compound 8 µM) was 0.269 and the relative viability (Sorafenib + Pictilisib; first compound 0.08 µM) was 0.393. It also gave a relative viability (Sorafenib + Pictilisib; first compound 0.253 µM) of 0.286, a relative viability (Sorafenib + Pictilisib; first compound 2.53 µM) of 0.45 and a relative viability (Sorafenib + Pictilisib; first compound 8 µM) of 0.299. The relative viability (Sorafenib + Phenformin; first compound 0.08 µM) was 0.402, the relative viability (Sorafenib + Phenformin; first compound 0.253 µM) was 0.264 and the relative viability (Sorafenib + Phenformin; first compound 2.53 µM) was 0.294. The relative viability (Sorafenib + Phenformin; first compound 8 µM) was 0.315, the relative viability (Sorafenib + Olaparib; first compound 0.08 µM) was 1.11 and the relative viability (Sorafenib + Olaparib; first compound 0.253 µM) was 0.838. The relative viability (Sorafenib + Olaparib; first compound 2.53 µM) was 1.02 and the relative viability (Sorafenib + Olaparib; first compound 8 µM) was 0.283.

Cell Line H3255 has a relative viability (Sorafenib + Luminespib; first compound 0.08 µM) of 1, a relative viability (Sorafenib + Luminespib; first compound 0.253 µM) of 0.781 and a relative viability (Sorafenib + Luminespib; first compound 2.53 µM) of 0.925. The relative viability (Sorafenib + OSI-027; first compound 0.08 µM) was 0.634, the relative viability (Sorafenib + OSI-027; first compound 0.253 µM) was 0.566 and the relative viability (Sorafenib + OSI-027; first compound 2.53 µM) was 0.619. For the same cell line, the relative viability (Sorafenib + OSI-027; first compound 8 µM) was 0.349, the relative viability (Sorafenib + Pictilisib; first compound 0.08 µM) was 0.525 and the relative viability (Sorafenib + Pictilisib; first compound 0.253 µM) was 0.434. It also gave a relative viability (Sorafenib + Pictilisib; first compound 2.53 µM) of 0.521, a relative viability (Sorafenib + Pictilisib; first compound 8 µM) of 0.305 and a relative viability (Sorafenib + Phenformin; first compound 0.08 µM) of 1.02. It also gave a relative viability (Sorafenib + Phenformin; first compound 0.253 µM) of 0.357, a relative viability (Sorafenib + Phenformin; first compound 2.53 µM) of 0.406 and a relative viability (Sorafenib + Olaparib; first compound 0.08 µM) of 0.574. It also gave a relative viability (Sorafenib + Olaparib; first compound 0.253 µM) of 0.532, a relative viability (Sorafenib + Olaparib; first compound 2.53 µM) of 0.536 and a relative viability (Sorafenib + Olaparib; first compound 8 µM) of 0.438.
